Like-named read-outs stand apart in the source and are kept apart here.

For this experiment, the system named is IRE1-XBP1s (XBP1-RLuc splicing reporter in HEK293 T-REx cells). The experiment can be described thus: IRE1-XBP1s activation assay (XBP1-RLuc splicing reporter, HEK293 T-REx cells, luminescence relative to thapsigargin). It counts as cell-based. As to conditions: 18 h, read-out: Activity (IRE1-XBP1s activation, luminescence as % signal relative to thapsigargin, % Tg). As for the experimental part:
IRE1-XBP1s activation Assay: HEK293 T-REx cells stably expressing the XBP1-RLuc splicing reporter were treated with an IRE1-XBP1s activator provided herein (10 μM) in the presence or absence of the IRE1 active site inhibitor 4μ8C (32 μM) for 18 h. Luminescence was shown as the percentage signal relative to thapsigargin (Tg) (500 nM, 18 h).

[1] abbreviates: compound 10 μM, HEK293 T-REx XBP1-RLuc reporter cells, relative to thapsigargin (Tg) 500 nM.

Regarding `Cc1ncc(OCCN(C)C(=O)Cn2cc(NC(=O)CCNc3ccc(F)nc3C)cn2)cn1` [Compound 241], under setting [1], the activation at 10 µM was less than 30%.
Same read-out and setting: the figure for `Cc1nc(F)ccc1NCCC(=O)Nc1cnn(CC(=O)N(C)CCOc2ccn(C)n2)c1` [Compound 242] is less than 30%; for `Cc1ccc(OCCN(C)C(=O)Cn2cc(NC(=O)CCNc3ccc(F)nc3C)cn2)cn1` [Compound 243] it is less than 30%; for `Cc1cnc(OCCN(C)C(=O)Cn2cc(NC(=O)CCNc3ccc(F)nc3C)cn2)nc1` [Compound 244] it is less than 30%.
In the case of `Cc1ccc2sc(OCCN(C)C(=O)Cn3cc(NC(=O)CCNc4ccc(F)nc4C)cn3)nc2c1` [Compound 246], the activation at 10 µM under setting [1] was less than 30%.
Turning to `Cc1nnc(OCCN(C)C(=O)Cn2cc(NC(=O)CCNc3ccc(F)nc3C)cn2)s1` [Compound 247], under setting [1], the activation at 10 µM is less than 30%.
For the molecule `Cc1ccc(OCCN(C)C(=O)Cn2cc(NC(=O)CCNC(=O)c3ncc(F)cn3)cn2)cc1` [Compound 248, 5-Fluoro-N-[3-[[1-[2-[methyl-[2-(4-methylphenoxy)ethyl]amino]-2-oxo-ethyl]pyrazol-4-yl]amino]-3-oxo-propyl]pyrimidine-2-carboxamide], the activation at 10 µM under setting [1] is less than 30%.
`Cc1ccc(OCCN(C)C(=O)Cn2cc(NC(=O)CNC(=O)c3ncc(F)cn3)cn2)cc1` [Compound 249]: the activation at 10 µM under setting [1] is less than 30%.
The same measure, in the same setting: the figure for `Cc1ccc(OCCN(C)C(=O)Cn2cc(NC(=O)CCNc3c(F)cncc3C3CC3)cn2)cc1` [Compound 250, 3-((3-cyclopropyl-5-fluoropyridin-4-yl)amino)-N-(1-(2-(methyl(2-(p-tolyloxy)ethyl)amino)-2-oxoethyl)-1H-pyrazol-4-yl)propanamide] is more than 50%; for `C=Cc1cncc(F)c1NCCC(=O)Nc1cnn(CC(=O)N(C)CCOc2ccc(C)cc2)c1` [Compound 251] it is more than 50%.
The same measure, in the same setting: the same measure for `COC(=O)Nc1cccc(NCCC(=O)Nc2cnn(CC(=O)N(C)CCOc3ccc(C)cc3)c2)n1` [Compound 253]: less than 30%.
Same read-out and setting: the same measure for `C=C(C)c1cncc(F)c1NCCC(=O)Nc1cnn(CC(=O)N(C)CCOc2ccc(C)cc2)c1` [Compound 254]: more than 50%; for `Cc1ccc(OCCN(C)C(=O)Cn2cc(NC(=O)CCNc3ccc(O)nc3)cn2)cc1` [Compound 255]: less than 30%.
For `Cc1ccc(OCC(C)(C)N(C)C(=O)Cn2cc(NC(=O)CCNc3ccnc(F)n3)cn2)cc1` [Compound 256], the activation at 10 µM under setting [1] is more than 50%.
Still for that read-out and setting: the same measure for `Cc1ccc(OCCN(C)C(=O)Cn2cc(NC(=O)CCNc3cncnc3C(C)C)cn2)cc1` [Compound 257]: less than 30%.
Take `Cc1ccc(OCCN(C)C(=O)Cn2cc(NC(=O)C(C)(C)C(=O)Nc3ncc(F)cn3)cn2)cc1` [Compound 258, N1-(5-fluoropyrimidin-2-yl)-2,2-dimethyl-N3-(1-(2-(methyl(2-(p-tolyloxy)ethyl)amino)-2-oxoethyl)-1H-pyrazol-4-yl)malonamide]: the activation at 10 µM was less than 30%.
As to `Cc1ccc(OCCN(C)C(=O)Cn2cc(NC(=O)CNC(=O)c3ccncc3)cn2)cc1` [Compound 259], the activation at 10 µM under setting [1] was less than 30%.
For `Cc1ccc(OCCN(C)C(=O)Cn2cc(NC(=O)CCNc3ccnc(O)n3)cn2)cc1` [Compound 260, 3-((2-hydroxypyrimidin-4-yl)amino)-N-(1-(2-(methyl(2-(p-tolyloxy)ethyl)amino)-2-oxoethyl)-1H-pyrazol-4-yl)propanamide], the activation at 10 µM under setting [1] is less than 30%.
Consider `COC(=O)Nc1cccc(OCCC(=O)Nc2cnn(CC(=O)N(C)CCOc3ccc(C)cc3)c2)n1` [Compound 261, methyl (6-(3-((1-(2-(methyl(2-(p-tolyloxy)ethyl)amino)-2-oxoethyl)-1H-pyrazol-4-yl)amino)-3-oxopropoxy)pyridin-2-yl)carbamate], for which, under setting [1], the activation at 10 µM was 30 to 50%.
On the same count and under the same terms, the figure for `COC(=O)Nc1cc(OCCC(=O)Nc2cnn(CC(=O)N(C)CCOc3ccc(C)cc3)c2)ccn1` [Compound 262] is 30 to 50%.
The same measure, in the same setting: the same measure for `Cc1cc(OCCN(C)C(=O)Cn2cc(NC(=O)CCNc3ccnc(F)n3)cn2)no1` [Compound 263]: less than 30%.
The same measure, in the same setting: the figure for `Cc1ccc(OC[C@H](C)N(C)C(=O)Cn2cc(NC(=O)CCNc3ccnc(F)n3)cn2)cc1` [Compound 264] is more than 50%; for `CN(CCOc1ccc(C(F)(F)F)cn1)C(=O)Cn1cc(NC(=O)CCNc2ccnc(O)n2)cn1` [Compound 265] it is less than 30%; for `Cc1ccc(OC[C@@H](C)N(C)C(=O)Cn2cc(NC(=O)CCNc3ccnc(O)n3)cn2)cc1` [Compound 266] it is less than 30%.
As for `CN(CCOc1ccc(C(F)(F)F)cn1)C(=O)Cn1cc(NC(=O)CCNc2ccnc(F)n2)cn1` [Compound 267], under setting [1], the activation at 10 µM was 30 to 50%.
The same measure, in the same setting: the same measure for `Cc1ccc(OC[C@@H](C)N(C)C(=O)Cn2cc(NC(=O)CCNc3ccnc(F)n3)cn2)cc1` [Compound 268]: more than 50%; for `CC(C)c1cncc(F)c1NCCC(=O)Nc1cnn(CC(=O)N(C)CCOc2ccc(C(F)(F)F)cn2)c1` [Compound 269]: more than 50%; for `Cc1ccc(OC[C@@H](C)N(C)C(=O)Cn2cc(NC(=O)CCNc3nccc(F)n3)cn2)cc1` [Compound 270]: 30 to 50%.
Same read-out and setting: the figure for `CN(CCOc1cc(C(F)F)on1)C(=O)Cn1cc(NC(=O)CCNc2nccc(F)n2)cn1` [Compound 271] is less than 30%; for `CN(CCOc1cc(C(F)F)on1)C(=O)Cn1cc(NC(=O)CCNc2ccnc(F)n2)cn1` [Compound 272] it is less than 30%; for `Cc1ccc(OCCN(C)C(=O)Cn2cc(NC(=O)CCOc3cccnc3NS(C)(=O)=O)cn2)cc1` [Compound 273, N-(1-(2-(methyl(2-(p-tolyloxy)ethyl)amino)-2-oxoethyl)-1H-pyrazol-4-yl)-3-((2-(methylsulfonamido)pyridin-3-yl)oxy)propanamide] it is less than 30%.
Still for that read-out and setting: the figure for `Cc1ccc(OCCN(C)C(=O)Cn2cc(NC(=O)COc3c(F)cncc3C(C)C)cn2)cc1` [Compound 274, 2-(4-(2-((3-fluoro-5-isopropylpyridin-4-yl)oxy)acetamido)-1H-pyrazol-1-yl)-N-methyl-N-(2-(p-tolyloxy)ethyl)acetamide] is less than 30%; for `CC(C)c1cncc(F)c1OCCC(=O)Nc1cnn(CC(=O)N(C)CCOc2ccc(C(F)(F)F)nc2)c1` [Compound 277] it is more than 50%; for `CC(C)c1cncc(F)c1OCCC(=O)Nc1cnn(CC(=O)N(C)CCOc2cnc(C(F)(F)F)cn2)c1` [Compound 278] it is more than 50%.
For `CC(C)c1cncc(F)c1OCCC(=O)Nc1cnn(CC(=O)N(C)CCOc2ccc(OC(F)(F)F)cn2)c1` [Compound 279], the activation at 10 µM under setting [1] is more than 50%.
On the same count and under the same terms, the same measure for `COc1cc(F)ccc1OCCN(C)C(=O)Cn1cc(NC(=O)CCNc2ncccn2)cn1` [Compound 282, N-(1-(2-((2-(4-fluoro-2-methoxyphenoxy)ethyl)(methyl)amino)-2-oxoethyl)-1H-pyrazol-4-yl)-3-(pyrimidin-2-ylamino)propanamide]: less than 30%.
Still for that read-out and setting: the same measure for `COc1cc(OCCN(C)C(=O)Cn2cc(NC(=O)CCNc3ncccn3)cn2)ccc1C` [Compound 283]: less than 30%.
Still for that read-out and setting: the same measure for `COc1cc(C)ccc1OCCN(C)C(=O)Cn1cc(NC(=O)CCNc2ncccn2)cn1` [Compound 284]: less than 30%; for `COc1cc(NS(=O)(=O)CC(=O)Nc2cnn(CC(=O)N(C)CCOc3ccc(C)cc3)c2)ccn1` [Compound 285, 2-(4-(2-(N-(2-methoxypyridin-4-yl)sulfamoyl)acetamido)-1H-pyrazol-1-yl)-N-methyl-N-(2-(p-tolyloxy)ethyl)acetamide]: less than 30%; for `Cc1ccc(OCCN(C)C(=O)Cn2cc(NC(=O)CCNc3ccc4c(n3)OCO4)cn2)cc1` [Compound 286, 3-([1,3]dioxolo[4,5-b]pyridin-5-ylamino)-N-(1-(2-(methyl (2-(p-tolyloxy)ethyl)amino)-2-oxoethyl)-1H-pyrazol-4-yl)propanamide]: more than 50%.
As for `Cc1ccc(OCCN(C)C(=O)Cn2cc(NC(=O)COc3cccc4cccnc34)cn2)cc1` [Compound 287, N-methyl-2-(4-(2-(quinolin-8-yloxy)acetamido)-1H-pyrazol-1-yl)-N-(2-(p-tolyloxy)ethyl)acetamide], the activation at 10 µM was less than 30%.
In the case of `Cc1ccc(OCCN(C)C(=O)Cn2cc(NC(=O)COc3ccc4ccccc4n3)cn2)cc1` [Compound 288], the activation at 10 µM under setting [1] is less than 30%.
Same read-out and setting: the same measure for `Cc1ccc(OCCN(C)C(=O)Cn2cc(NC(=O)COc3cc4ccccn4n3)cn2)cc1` [Compound 289]: more than 50%; for `Cc1ccc(OCCN(C)C(=O)Cn2cc(NC(=O)CCNc3ccc4c(c3)OC(F)(F)O4)cn2)cc1` [Compound 290]: less than 30%; for `Cc1ccc(OCCN(C)C(=O)Cn2cc(NC(=O)CCNc3cc4c(cn3)OCO4)cn2)cc1` [Compound 291]: 30 to 50%.
On the same count and under the same terms, the figure for `Cc1ccc(OCCN(C)C(=O)Cn2cc(NC(=O)C3(CNc4ccc(F)nc4C)CC3)cn2)cc1` [Compound 293, 1-(((6-fluoro-2-methylpyridin-3-yl)amino)methyl)-N-(1-(2-(methyl (2-(p-tolyloxy)ethyl)amino)-2-oxoethyl)-1H-pyrazol-4-yl)cyclopropane-1-carboxamide] is less than 30%.
Still for that read-out and setting: the figure for `Cc1ccc(OCCN(C)C(=O)Cn2cc(NC(=O)CCNc3ncc(-c4ncc(C)o4)cn3)cn2)cc1` [Compound 294, N-(1-(2-(methyl (2-(p-tolyloxy)ethyl)amino)-2-oxoethyl)-1H-pyrazol-4-yl)-3-((5-(5-methyloxazol-2-yl)pyrimidin-2-yl)amino)propanamide] is less than 30%.

The values are drawn from patent publication US20260193236A1 (Protego Biopharma, Inc., priority 2022, published 2026).
